Assay results reported in patent publication EP4796538A1, “NOVEL QUINOXALINE COMPOUNDS, MANUFACTURING METHOD THEREOF, AND USES THEREOF” (Gachon University of Industry-Academic Cooperation …, priority 2023, dated 2025).
Where two headings read alike, the source gives them in different places.

Assays:
[1] = test system: A-549; assay: Cell proliferation inhibition, Cell Counting Kit-8, non-small cell lung cancer cell line; format: cell-based; settings: A-549 cell line; 72 hours incubation; test concentration not given
[2] = target: T1, RET(G810R) (Homo sapiens, UniProt P07949, G810R); assay: Kinase panel inhibition, radiolabeled [γ-33P] ATP (Reaction Biology Corp); format: biochemical; settings: compound at 0.1 uM; ATP 10 µM; read-out: % Enzyme Activity (relative to DMSO controls) G810R
T1 construct: purchased Reaction Biology Corp
T1 sequence (P07949 29-1114 G810R): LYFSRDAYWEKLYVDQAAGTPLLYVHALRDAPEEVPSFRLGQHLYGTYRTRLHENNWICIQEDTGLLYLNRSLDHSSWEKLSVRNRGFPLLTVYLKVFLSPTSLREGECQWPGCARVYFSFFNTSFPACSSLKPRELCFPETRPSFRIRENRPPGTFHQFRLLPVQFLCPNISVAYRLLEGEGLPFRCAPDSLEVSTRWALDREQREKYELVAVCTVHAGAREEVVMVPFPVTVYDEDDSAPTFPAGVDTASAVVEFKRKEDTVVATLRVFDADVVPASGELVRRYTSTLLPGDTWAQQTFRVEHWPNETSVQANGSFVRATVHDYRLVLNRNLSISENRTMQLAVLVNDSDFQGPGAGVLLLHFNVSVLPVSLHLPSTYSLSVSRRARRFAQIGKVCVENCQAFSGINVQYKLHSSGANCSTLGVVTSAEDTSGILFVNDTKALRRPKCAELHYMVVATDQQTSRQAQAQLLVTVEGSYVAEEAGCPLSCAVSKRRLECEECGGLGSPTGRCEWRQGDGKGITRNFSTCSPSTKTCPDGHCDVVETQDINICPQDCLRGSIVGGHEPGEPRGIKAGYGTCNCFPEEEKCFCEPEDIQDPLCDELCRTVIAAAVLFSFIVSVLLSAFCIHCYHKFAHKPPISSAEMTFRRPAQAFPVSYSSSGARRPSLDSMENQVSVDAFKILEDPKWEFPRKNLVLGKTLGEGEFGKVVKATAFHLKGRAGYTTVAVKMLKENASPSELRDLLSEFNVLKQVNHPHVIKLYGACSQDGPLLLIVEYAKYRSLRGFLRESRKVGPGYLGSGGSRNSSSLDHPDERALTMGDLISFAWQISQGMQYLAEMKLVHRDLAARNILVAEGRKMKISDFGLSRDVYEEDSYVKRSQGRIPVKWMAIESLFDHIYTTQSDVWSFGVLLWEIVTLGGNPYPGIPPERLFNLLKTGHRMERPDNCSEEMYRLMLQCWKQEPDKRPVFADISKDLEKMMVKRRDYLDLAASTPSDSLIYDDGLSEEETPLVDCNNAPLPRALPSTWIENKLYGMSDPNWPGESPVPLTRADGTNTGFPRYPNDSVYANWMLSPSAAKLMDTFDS
Description: (§1) Using radiolabeled ATP ([γ-33P] ATP), the degree to which the substrate was replaced by a 33P-phosphorylated substrate was measured, and changes in kinase activity were determined from the measurement of the radiolabeled phosphorylated substrate.

[3] = target: T2, RET (G810S/M918T) (Homo sapiens, UniProt P07949, G810S/M918T); assay: as above; format: biochemical; settings: compound at 10 uM, ATP 1 µM
T2 construct: purchased Reaction Biology Corp
T2 sequence (P07949 29-1114 G810S/M918T): as the sequence (P07949 29-1114 G810R) above, with R782S, M890T counted along it
Description: as §1

[4] = target: T3, RET-CCDC6 (PTC1) (Homo sapiens, UniProt P07949); assay: as above; format: biochemical; settings: compound at 10 uM, ATP 1 µM
T3 construct: purchased Reaction Biology Corp
T3 sequence (P07949 whole entry, looked up): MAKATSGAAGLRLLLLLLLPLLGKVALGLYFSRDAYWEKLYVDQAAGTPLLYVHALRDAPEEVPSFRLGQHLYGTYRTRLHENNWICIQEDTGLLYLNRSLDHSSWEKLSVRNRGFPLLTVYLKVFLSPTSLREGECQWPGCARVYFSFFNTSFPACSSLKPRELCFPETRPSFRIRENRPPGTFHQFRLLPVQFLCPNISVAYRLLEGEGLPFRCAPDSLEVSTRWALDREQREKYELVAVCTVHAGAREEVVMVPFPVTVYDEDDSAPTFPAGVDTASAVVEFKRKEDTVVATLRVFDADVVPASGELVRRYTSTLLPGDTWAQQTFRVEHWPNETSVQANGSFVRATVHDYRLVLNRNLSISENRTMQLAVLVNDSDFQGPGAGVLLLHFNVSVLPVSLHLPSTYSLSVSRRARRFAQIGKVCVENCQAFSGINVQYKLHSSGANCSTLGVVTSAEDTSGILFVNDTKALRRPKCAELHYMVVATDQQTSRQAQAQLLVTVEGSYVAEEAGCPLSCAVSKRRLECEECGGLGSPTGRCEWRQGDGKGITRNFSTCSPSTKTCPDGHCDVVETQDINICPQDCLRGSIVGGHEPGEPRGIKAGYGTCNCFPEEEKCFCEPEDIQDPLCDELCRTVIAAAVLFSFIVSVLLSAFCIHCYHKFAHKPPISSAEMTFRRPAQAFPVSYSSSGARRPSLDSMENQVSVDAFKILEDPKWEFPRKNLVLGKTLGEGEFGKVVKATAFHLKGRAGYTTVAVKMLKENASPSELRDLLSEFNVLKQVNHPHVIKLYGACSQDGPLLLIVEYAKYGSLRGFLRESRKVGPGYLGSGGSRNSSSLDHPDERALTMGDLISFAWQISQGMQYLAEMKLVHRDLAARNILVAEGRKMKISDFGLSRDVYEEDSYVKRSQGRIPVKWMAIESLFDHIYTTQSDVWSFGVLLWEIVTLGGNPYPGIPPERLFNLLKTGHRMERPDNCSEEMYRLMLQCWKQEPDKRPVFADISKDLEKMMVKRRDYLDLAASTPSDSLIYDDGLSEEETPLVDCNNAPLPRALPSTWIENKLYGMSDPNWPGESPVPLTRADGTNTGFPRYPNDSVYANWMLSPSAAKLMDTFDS
Description: as §1

[5] = test system: BaF3-RET(V804M); assay: Cell proliferation inhibition (GI50), Cell Counting Kit-8, Ba/F3 cell line; format: cell-based, rodent; settings: Mus musculus, read-out: GI50 of BaF3-RET(V804M)
Description: To evaluate the inhibitory activity of the compounds represented by Formula I or Formula IV according to the present invention against RET mutation-driven cell growth in the Ba/F3 cell line and against cell growth in the non-small cell lung cancer cell line A-549, the following experiment was performed.
Each cell line was seeded in a 96-well plate at 1×10^4 cells/90 µL/well, and 10 µL/well of culture medium containing each example and intermediate compound or DMSO control at 9 concentrations (1 nM to 100 µM) prepared by 3-fold serial dilutions was added to achieve a final concentration of 0 to 100 µM, followed by incubation for 72 hours in a 37°C, 5% CO2 incubator. After 72 hours of incubation, the compound-treated plates were removed, and Cell Counting Kit-8 solution was added at 10 µL/well and mixed well. The plates were then incubated for 2 hours in a CO2 incubator at 37°C, and the absorbance was measured at 450 nm using a microplate reader.
In addition, the data were expressed as a percentage relative to vehicle-treated cells, and GI50 values were calculated using GraphPad Prism 8.0 (GraphPad Software Inc., San Diego), and the results are shown in Table 8 below. As a control compound, ponatinib, a known RET inhibitor, was treated to calculate the GI50 values.

[6] = target: T4, RET(V804M)-KIF5B (Homo sapiens, UniProt P07949, V804M); assay: Kinase panel inhibition, radiolabeled [γ-33P] ATP (Reaction Biology Corp); format: biochemical; settings: compound at 0.1 uM; ATP 10 µM; read-out: % Enzyme Activity (relative to DMSO controls) RET (V804M )-KIF5B
T4 sequence (P07949 713-1114 V804M): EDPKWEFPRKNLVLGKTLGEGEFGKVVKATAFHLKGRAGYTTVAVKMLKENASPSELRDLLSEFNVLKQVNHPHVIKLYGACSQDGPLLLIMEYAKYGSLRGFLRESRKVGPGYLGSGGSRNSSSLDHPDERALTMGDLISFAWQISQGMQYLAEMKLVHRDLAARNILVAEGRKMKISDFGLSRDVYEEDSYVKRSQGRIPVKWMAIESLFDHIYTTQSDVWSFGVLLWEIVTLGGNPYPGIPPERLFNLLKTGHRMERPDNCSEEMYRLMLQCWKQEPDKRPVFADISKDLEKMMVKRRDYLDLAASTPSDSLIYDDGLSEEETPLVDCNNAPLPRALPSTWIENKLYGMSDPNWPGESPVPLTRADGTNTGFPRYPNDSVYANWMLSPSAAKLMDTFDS
T4 sequence (P33176 2-575 partner): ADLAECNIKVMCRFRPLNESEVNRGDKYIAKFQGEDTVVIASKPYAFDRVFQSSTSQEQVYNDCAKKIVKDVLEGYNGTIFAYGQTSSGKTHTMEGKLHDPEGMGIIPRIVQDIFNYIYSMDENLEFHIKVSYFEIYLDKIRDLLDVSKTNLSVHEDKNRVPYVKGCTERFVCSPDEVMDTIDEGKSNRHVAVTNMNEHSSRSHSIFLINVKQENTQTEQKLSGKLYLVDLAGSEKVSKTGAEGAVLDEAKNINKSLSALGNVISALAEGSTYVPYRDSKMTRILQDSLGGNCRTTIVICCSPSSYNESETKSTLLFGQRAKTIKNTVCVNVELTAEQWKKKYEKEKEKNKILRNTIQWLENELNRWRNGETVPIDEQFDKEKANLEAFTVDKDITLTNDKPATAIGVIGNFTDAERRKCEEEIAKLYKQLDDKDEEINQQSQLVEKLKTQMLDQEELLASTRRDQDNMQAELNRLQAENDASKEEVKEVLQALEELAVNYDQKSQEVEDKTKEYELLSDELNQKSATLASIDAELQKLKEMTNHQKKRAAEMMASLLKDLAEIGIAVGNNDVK
Description: as §1

[7] = target: T5, RET(V804M) (Homo sapiens, UniProt P07949, V804M); assay: as above; format: biochemical; settings: compound at 0.1 uM; ATP 10 µM; read-out: % Enzyme Activity (relative to DMSO controls) V804M
T5 construct: purchased Reaction Biology Corp
T5 sequence (P07949 29-1114 V804M): as the sequence (P07949 29-1114 G810R) above, with V776M, R782G counted along it
Description: as §1

[8] = Data 1, read-out: % Enzyme Activity (relative to DMSO controls) RET (G810S/M918T) Data 1
[9] = Data 2, read-out: % Enzyme Activity (relative to DMSO controls) RET (G810S/M918T) Data 2
[10] = Data 1, read-out: % Enzyme Activity (relative to DMSO controls) RET-CCDC6 (PTC1) Data 1
[11] = Data 2, read-out: % Enzyme Activity (relative to DMSO controls) RET-CCDC6 (PTC1) Data 2
[12] = BaF3, 72 hours incubation, Cell Counting Kit-8

SMILES	Cell Proliferation (% of control) [1] [%]	remaining activity at 0.1 µM [2] [%]	remaining activity at 10 µM [3, 8] [%]	remaining activity at 10 µM [3, 9] [%]	remaining activity at 10 µM [4, 10] [%]	remaining activity at 10 µM [4, 11] [%]	GI50 [5, 12] [nM]	remaining activity at 0.1 µM [6] [%]	remaining activity at 0.1 µM [7] [%]	GI50 ([5]; BaF3, 72 h) [nM]
CNc1cc(-c2ccc(N3CC(Oc4cccc(F)c4)C3)nc2)c2nccnc2c1 [Example 2, 8-(6-(3-(3-fluorophenoxy)azetidin-1-yl)pyridin-3-yl)-N-methylquinoxalin-6-amine]	18.59	77.3	0.05	-0.43	1.38	0.23	943	–	–	–
CNc1cc(-c2ccc(N3CC[C@H](NC(=O)c4ccccc4F)C3)nc2)c2nccnc2c1 [Example 11, (S)-2-fluoro-N-(1-(5-(7-(methylamino)quinoxalin-5-yl)pyridin-2-yl)pyrrolidin-3-yl)benzamide]	20.80	56	-0.84	-0.85	1.36	1.07	2120	–	–	–
CCNc1cc(-c2ccc(N3CC[C@H](NC(=O)c4ccccc4F)C3)nc2)c2nccnc2c1 [Example 12, (S)-N-(1-(5-(7-(ethylamino)quinoxalin-5-yl)pyridin-2-yl)pyrrolidin-3-yl)-2-fluorobenzamide]	41.67	59.9	2.65	0.69	1.25	1.01	1060	5.5	2.27	–
CCNc1cc(C#CCN2CCOCC2)c2nccnc2c1 [Example 31, N-ethyl-8-(3-morpholinoprop-1-yn-1-yl)quinoxalin-6-amine]	51.88	98.5	61.7	61.2	14.8	15.4	–	109	105	–
CCNc1cc(Nc2cc(C)[nH]n2)c2nccnc2c1 [Example 32, N7-ethyl-N5-(5-methyl-1H-pyrazol-3-yl)quinoxaline-5,7-diamine]	92.91	96.6	41.9	40.6	5.39	4.58	–	85.9	88.7	–
Cc1ccc(C(=O)Nc2ccc(CN3CCN(C)CC3)c(C(F)(F)F)c2)cc1C#Cc1cnc2cccnn12 [Ponatinib, ponatinib, reference compound]	-1.99	–	–	–	–	–	–	–	–	115
